Data reported in PMC7544826 (Communications Biology, 2020).
Entries after “also recorded” stand apart in the source; their conditions may differ.

Assays:
Notum [1] = target: T1, Notum (Homo sapiens, UniProt Q6P988, C330S); assay: SPR equilibrium binding to biotinylated Notum on streptavidin chip; parameters: The human Notum enzyme core comprising amino acids S81–T451 with a C330S mutation; made in house; dialyzed conditioned medium used without purification; details: result in words
T1 sequence (Q6P988 81-451 C330S): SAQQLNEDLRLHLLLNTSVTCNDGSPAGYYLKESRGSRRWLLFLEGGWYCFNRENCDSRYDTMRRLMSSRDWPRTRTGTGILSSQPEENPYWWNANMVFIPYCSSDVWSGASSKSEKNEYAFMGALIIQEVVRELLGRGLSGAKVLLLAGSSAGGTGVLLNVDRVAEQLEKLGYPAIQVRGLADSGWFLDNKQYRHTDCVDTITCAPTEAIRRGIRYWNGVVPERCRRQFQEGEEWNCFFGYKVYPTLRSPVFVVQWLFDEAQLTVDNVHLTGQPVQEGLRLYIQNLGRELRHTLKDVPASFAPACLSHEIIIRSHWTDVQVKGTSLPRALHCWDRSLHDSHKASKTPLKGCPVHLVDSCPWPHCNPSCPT
Protocol: The human Notum core sequence was cloned in a pHL-Avi3 vector[49] and co-transfected with the pDisplay_BirA-ER plasmid[50] into HEK293T cells with the media supplemented with 20 µM biotin. This procedure allows in vivo biotinylation to occur, and the dialyzed conditioned medium was directly used for SA sensor chip immobilization without protein purification. […] Approximately 2500 resonance units (RU) of the biotinylated Notum was coupled onto the chip. […] The response was plotted versus the concentration of the analytes and fitted by nonlinear regression to a one-site saturation binding model (GraphPad Prism 8).

Notum [2] = target: T1, Notum; assay: Notum activity assay with OPTS as substrate; type: biochemical; parameters: The human Notum enzyme core comprising amino acids S81–T451 with a C330S mutation; made in house; dialyzed conditioned medium used without purification; details: result in words
Protocol: OPTS is a common lipase substrate with an octanoyl lipid linked to a fluorescent moiety. It is not a natural Notum substrate; however, it can be used to quantify the enzymatic activity of purified Notum protein[23],[25],[28]. […] The fluorescent lipase substrate OPTS was dissolved in water at a concentration of 20 µM. […] The inhibition curves were fitted with a one-site model with GraphPad Prism 8 software.

Notum [3] = target: T1, Notum; assay: Thermal shift assay (SYPRO Orange) of Notum; details: compound 500 µM; for Thermoflour melting curve fluorescence of Notum: Fig 2c
Protocol: Reference wells, i.e. solutions without compounds were used to compare the melting temperature (Tm). The experiments were performed in triplicate.

1,5-dimethylxanthine [theobromine]
Binding to Notum (SPR response) (Notum [1]): did not observe significant responses; also recorded: do not bind Notum
Notum inhibitory effect in OPTS enzyme assay (Notum [2]): could not detect obvious Notum inhibitory effects
Thermoflour melting curve fluorescence of Notum (Notum [3]; Temperature 24.5): 1404.51
Thermoflour melting curve fluorescence of Notum (Notum [3]; Temperature 25.5): 1219.92
Thermoflour melting curve fluorescence of Notum (Notum [3]; Temperature 26.5): 1040.89
Thermoflour melting curve fluorescence of Notum (Notum [3]; Temperature 27.5): 912.702
Thermoflour melting curve fluorescence of Notum (Notum [3]; Temperature 28.5): 812.506
Thermoflour melting curve fluorescence of Notum (Notum [3]; Temperature 29.5): 748.934
Thermoflour melting curve fluorescence of Notum (Notum [3]; Temperature 30.5): 702.942
Thermoflour melting curve fluorescence of Notum (Notum [3]; Temperature 31.5): 648.106
Thermoflour melting curve fluorescence of Notum (Notum [3]; Temperature 32.5): 580.173
Thermoflour melting curve fluorescence of Notum (Notum [3]; Temperature 33.5): 507.838
Thermoflour melting curve fluorescence of Notum (Notum [3]; Temperature 34.5): 418.887
Thermoflour melting curve fluorescence of Notum (Notum [3]; Temperature 35.5): 274.731
Thermoflour melting curve fluorescence of Notum (Notum [3]; Temperature 36.5): 90.4697
Thermoflour melting curve fluorescence of Notum (Notum [3]; Temperature 37.5): -139.16
Thermoflour melting curve fluorescence of Notum (Notum [3]; Temperature 38.5): -392.32
Thermoflour melting curve fluorescence of Notum (Notum [3]; Temperature 39.5): -608.25
Thermoflour melting curve fluorescence of Notum (Notum [3]; Temperature 40.5): -782.991
Thermoflour melting curve fluorescence of Notum (Notum [3]; Temperature 41.5): -908.263
Thermoflour melting curve fluorescence of Notum (Notum [3]; Temperature 42.5): -987.266
Thermoflour melting curve fluorescence of Notum (Notum [3]; Temperature 43.5): -1014
Thermoflour melting curve fluorescence of Notum (Notum [3]; Temperature 44.5): -973.707
Thermoflour melting curve fluorescence of Notum (Notum [3]; Temperature 45.5): -878.635
Thermoflour melting curve fluorescence of Notum (Notum [3]; Temperature 46.5): -736.376
Thermoflour melting curve fluorescence of Notum (Notum [3]; Temperature 47.5): -559.758
Thermoflour melting curve fluorescence of Notum (Notum [3]; Temperature 48.5): -346.91
Thermoflour melting curve fluorescence of Notum (Notum [3]; Temperature 49.5): -78.207
Thermoflour melting curve fluorescence of Notum (Notum [3]; Temperature 50.5): 248.299
Thermoflour melting curve fluorescence of Notum (Notum [3]; Temperature 51.5): 600.666
Thermoflour melting curve fluorescence of Notum (Notum [3]; Temperature 52.5): 986.098
Thermoflour melting curve fluorescence of Notum (Notum [3]; Temperature 53.5): 1440.99
Thermoflour melting curve fluorescence of Notum (Notum [3]; Temperature 54.5): 1961.08
Thermoflour melting curve fluorescence of Notum (Notum [3]; Temperature 55.5): 2560.53
Thermoflour melting curve fluorescence of Notum (Notum [3]; Temperature 56.5): 3253.14
Thermoflour melting curve fluorescence of Notum (Notum [3]; Temperature 57.5): 4045.69
Thermoflour melting curve fluorescence of Notum (Notum [3]; Temperature 58.5): 5053.15
Thermoflour melting curve fluorescence of Notum (Notum [3]; Temperature 59.5): 6367.38
Thermoflour melting curve fluorescence of Notum (Notum [3]; Temperature 60.5): 8116.48
Thermoflour melting curve fluorescence of Notum (Notum [3]; Temperature 61.5): 10309.5
Thermoflour melting curve fluorescence of Notum (Notum [3]; Temperature 62.5): 12803.5
Thermoflour melting curve fluorescence of Notum (Notum [3]; Temperature 63.5): 15345.7
Thermoflour melting curve fluorescence of Notum (Notum [3]; Temperature 64.5): 17689.5
Thermoflour melting curve fluorescence of Notum (Notum [3]; Temperature 65.5): 19737.1
Thermoflour melting curve fluorescence of Notum (Notum [3]; Temperature 66.5): 21432.6
Thermoflour melting curve fluorescence of Notum (Notum [3]; Temperature 67.5): 22887.7
Thermoflour melting curve fluorescence of Notum (Notum [3]; Temperature 68.5): 24216
Thermoflour melting curve fluorescence of Notum (Notum [3]; Temperature 69.5): 25446.3
Thermoflour melting curve fluorescence of Notum (Notum [3]; Temperature 70.5): 26564.8
Thermoflour melting curve fluorescence of Notum (Notum [3]; Temperature 71.5): 27592.2
Thermoflour melting curve fluorescence of Notum (Notum [3]; Temperature 72.5): 28538.2
Thermoflour melting curve fluorescence of Notum (Notum [3]; Temperature 73.5): 29406
Thermoflour melting curve fluorescence of Notum (Notum [3]; Temperature 74.5): 30226.8
Thermoflour melting curve fluorescence of Notum (Notum [3]; Temperature 75.5): 30994.2
Thermoflour melting curve fluorescence of Notum (Notum [3]; Temperature 76.5): 31712.3
Thermoflour melting curve fluorescence of Notum (Notum [3]; Temperature 77.5): 32380.8
Thermoflour melting curve fluorescence of Notum (Notum [3]; Temperature 78.5): 33030.5
Thermoflour melting curve fluorescence of Notum (Notum [3]; Temperature 79.5): 33697.5
Thermoflour melting curve fluorescence of Notum (Notum [3]; Temperature 80.5): 34352.1
Thermoflour melting curve fluorescence of Notum (Notum [3]; Temperature 81.5): 34969.9
Thermoflour melting curve fluorescence of Notum (Notum [3]; Temperature 82.5): 35562.2
Thermoflour melting curve fluorescence of Notum (Notum [3]; Temperature 83.5): 36162.5
Thermoflour melting curve fluorescence of Notum (Notum [3]; Temperature 84.5): 36803.8
Thermoflour melting curve fluorescence of Notum (Notum [3]; Temperature 85.5): 37475.6
Thermoflour melting curve fluorescence of Notum (Notum [3]; Temperature 86.5): 38149.2
Thermoflour melting curve fluorescence of Notum (Notum [3]; Temperature 87.5): 38788.7
Thermoflour melting curve fluorescence of Notum (Notum [3]; Temperature 88.5): 39302.1
Thermoflour melting curve fluorescence of Notum (Notum [3]; Temperature 89.5): 39800.1
Thermoflour melting curve fluorescence of Notum (Notum [3]; Temperature 90.5): 40397.5
Thermoflour melting curve fluorescence of Notum (Notum [3]; Temperature 91.5): 41008.7
Thermoflour melting curve fluorescence of Notum (Notum [3]; Temperature 92.5): 41535.5
Thermoflour melting curve fluorescence of Notum (Notum [3]; Temperature 93.5): 42071.6
Thermoflour melting curve fluorescence of Notum (Notum [3]; Temperature 94.5): 42644
Thermoflour melting curve fluorescence of Notum (Notum [3]; Temperature 95.5): 43225
Thermoflour melting curve fluorescence of Notum (Notum [3]; Temperature 96.5): 43850.3
Thermoflour melting curve fluorescence of Notum (Notum [3]; Temperature 97.5): 44460.4
Effect on Tm of Notum (Notum [3]): little effect on the Tm
Melting temperature (Tm) of Notum (Notum [3]; Notum without compounds Tm 63.6 °C): 63.4 °C
